Measurements: PubChem BioAssay AID200 (DTP/NCI, 2004)
Several values for one entry are separate records, joined by “and”; a condition that tells them apart may be missing. Identical values can stand only once. Inconclusive results and toxic doses are left out.

Tested on: B6C3F1 mice, B16 melanoma ip, median survival T/C
Experiment: NCI In Vivo Anticancer Drug Screen. Data for tumor model B16 Melanoma (intraperitoneal) in B6C3F1 mice
Settings: endpoint: median survival time, higher = longer survival
Summary of the method: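 Tumor-bearing mice received test compound; a separate group got vehicle only. Survival was then compared, with results reported as treated over control.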

[1] = dose: 25.0 mg/kg/injection, schedule: Q01DX009 (ip), vehicle: Klucel (hydroxypropylcellulose) (HPC)
[2] = dose: 50.0 mg/kg/injection, schedule: Q01DX009 (ip), vehicle: Klucel (hydroxypropylcellulose) (HPC)
[3] = dose: 100.0 mg/kg/injection, schedule: Q01DX009 (ip), vehicle: Klucel (hydroxypropylcellulose) (HPC)
[4] = dose: 200.0 mg/kg/injection, schedule: Q01DX009 (ip), vehicle: Klucel (hydroxypropylcellulose) (HPC)
[5] = dose: 6.25 mg/kg/injection, schedule: Q01DX009 (ip), vehicle: saline with Tween-80
[6] = dose: 12.5 mg/kg/injection, schedule: Q01DX009 (ip), vehicle: saline with Tween-80
[7] = dose: 25.0 mg/kg/injection, schedule: Q01DX009 (ip), vehicle: saline with Tween-80
[8] = dose: 50.0 mg/kg/injection, schedule: Q01DX009 (ip), vehicle: saline with Tween-80
[9] = dose: 100.0 mg/kg/injection, schedule: Q01DX009 (ip), vehicle: saline with Tween-80
[10] = dose: 50.0 mg/kg/injection, schedule: Q01DX009 (ip), vehicle: water
[11] = dose: 12.5 mg/kg/injection, schedule: Q01DX009 (ip), vehicle: Klucel (hydroxypropylcellulose) (HPC)
[12] = dose: 200.0 mg/kg/injection, schedule: Q01DX009 (ip), vehicle: saline with Tween-80
[13] = dose: 400.0 mg/kg/injection, schedule: Q01DX009 (ip), vehicle: saline with Tween-80
[14] = dose: 25.0 mg/kg/injection, schedule: Q01DX009 (ip), vehicle: saline

## CC1=C(C(N)=O)C(c2ccccc2)NC(=S)N1 (configuration not stated)
[1]
  T/C: 106 % of control
[2]
  T/C: 105 % of control
[3]
  T/C: 100 % of control
[4]
  T/C: 117 % of control

## [NH-]C(CCC(N)=O)C(=O)O.[NH-]C(CCC(N)=O)C(=O)O.[Zn+2] (configuration not stated)
[5]
  T/C: 95 % of control
[6]
  T/C: 93 % of control
[7]
  T/C: 98 % of control
[8]
  T/C: 90 % of control

## O=C(NC(CO)C(=O)O)OCc1ccccc1 (configuration not stated)
[7]
  T/C: 97 % of control
[8]
  T/C: 98 % of control
[9]
  T/C: 87 % of control and 102 % of control

## COc1cccc2c1C(=O)c1c(O)c3c(c(O)c1C2=O)C[C@@](O)(C(O)CO)C[C@@H]3OC1CC(N(Cc2ccccc2)Cc2ccccc2)C(O)C(C)O1 (some centres not stated)
dose: 6.25 mg/kg/injection, schedule: Q01DX001 (ip), vehicle: water
  T/C: 111 % of control
dose: 50.0 mg/kg/injection, schedule: Q01DX001 (ip), vehicle: water
  T/C: 166 % of control
[10]
  T/C: 160 % of control
dose: 100.0 mg/kg/injection, schedule: Q01DX001 (ip), vehicle: water
  T/C: 196 % of control
dose: 200.0 mg/kg/injection, schedule: Q01DX001 (ip), vehicle: water
  T/C: 232 % of control

## NC(=O)C#CC(N)=O
dose: 0.06 mg/kg/injection, schedule: Q01DX009 (ip), vehicle: Klucel (hydroxypropylcellulose) (HPC)
  T/C: 101 % of control
dose: 0.12 mg/kg/injection, schedule: Q01DX009 (ip), vehicle: Klucel (hydroxypropylcellulose) (HPC)
  T/C: 102 % of control
dose: 0.23 mg/kg/injection, schedule: Q01DX009 (ip), vehicle: Klucel (hydroxypropylcellulose) (HPC)
  T/C: 97 % of control
dose: 0.45 mg/kg/injection, schedule: Q01DX009 (ip), vehicle: Klucel (hydroxypropylcellulose) (HPC)
  T/C: 100 % of control
dose: 0.9 mg/kg/injection, schedule: Q01DX009 (ip), vehicle: Klucel (hydroxypropylcellulose) (HPC)
  T/C: 102 % of control

## CC(C)(C)OC(=O)NC(CCCNC(=O)OCc1ccccc1)C(=O)O (configuration not stated)
[3]
  T/C: 110 % of control
[4]
  T/C: 104 % of control
dose: 400.0 mg/kg/injection, schedule: Q01DX009 (ip), vehicle: Klucel (hydroxypropylcellulose) (HPC)
  T/C: 98 % of control

## NC(=O)c1ccc[n+](Cc2c(Cl)cccc2Cl)c1
dose: 1.5 mg/kg/injection, schedule: Q01DX009 (ip), vehicle: saline
  T/C: 98 % of control
dose: 3.0 mg/kg/injection, schedule: Q01DX009 (ip), vehicle: saline
  T/C: 98 % of control
dose: 6.0 mg/kg/injection, schedule: Q01DX009 (ip), vehicle: saline
  T/C: 103 % of control
dose: 12.0 mg/kg/injection, schedule: Q01DX009 (ip), vehicle: saline
  T/C: 98 % of control

## O=C1CN(CCN2CC(=O)N(CN3CCOCC3)C(=O)C2)CC(=O)N1CN1CCOCC1
dose: 12.5 mg/kg/injection, schedule: Q01DX009 (ip), vehicle: water
  T/C: 107 % of control
dose: 25.0 mg/kg/injection, schedule: Q01DX009 (ip), vehicle: water
  T/C: 114 % of control and 118 % of control (2×)
[10]
  T/C: 150 % of control and 154 % of control

## CC(=O)NC(CCc1ccc(Cl)c(Cl)c1)c1cccc(O)c(=O)c1 (configuration not stated)
dose: 3.0 mg/kg/injection, schedule: Q01DX009 (ip), vehicle: Klucel (hydroxypropylcellulose) (HPC)
  T/C: 93 % of control
dose: 6.0 mg/kg/injection, schedule: Q01DX009 (ip), vehicle: Klucel (hydroxypropylcellulose) (HPC)
  T/C: 101 % of control
[11]
  T/C: 101 % of control
[1]
  T/C: 105 % of control
[2]
  T/C: 105 % of control

## COc1nc2c(=O)[nH]c(N)nc2n1C1OC(CO)C(O)C1O (configuration not stated)
[9]
  T/C: 96 % of control
[12]
  T/C: 93 % of control
[13]
  T/C: 91 % of control

## Nc1ccn(C2OC(CO)C(O)C2O)c(=O)n1 (configuration not stated)
[14]
  T/C: 120 % of control
dose: 2400.0 mg/kg/injection, schedule: Q01DX009 (ip), vehicle: saline with Tween-80
  T/C: 110 % of control

## CCCCCCCCCCCCCCCCC(C(=O)O)C(O)(CC(=O)O)C(=O)O (configuration not stated)
dose: 8.75 mg/kg/injection, schedule: Q01DX009 (ip), vehicle: Klucel (hydroxypropylcellulose) (HPC)
  T/C: 95 % of control
dose: 17.5 mg/kg/injection, schedule: Q01DX009 (ip), vehicle: Klucel (hydroxypropylcellulose) (HPC)
  T/C: 91 % of control
dose: 35.0 mg/kg/injection, schedule: Q01DX009 (ip), vehicle: Klucel (hydroxypropylcellulose) (HPC)
  T/C: 100 % of control
dose: 70.0 mg/kg/injection, schedule: Q01DX009 (ip), vehicle: Klucel (hydroxypropylcellulose) (HPC)
  T/C: 93 % of control

## C=C1C(O)C2(O)OCC34C(CC5C(C)=CC(=O)C(O)C5(C)C23)OC(=O)C(OC(=O)C(C)(O)CC)C14 (configuration not stated)
dose: 0.13 mg/kg/injection, schedule: Q01DX009 (ip), vehicle: saline + alcohol
  T/C: 89 % of control
dose: 0.25 mg/kg/injection, schedule: Q01DX009 (ip), vehicle: saline + alcohol
  T/C: 110 % of control and 101 % of control
dose: 0.5 mg/kg/injection, schedule: Q01DX009 (ip), vehicle: saline + alcohol
  T/C: 103 % of control
dose: 1.0 mg/kg/injection, schedule: Q01DX009 (ip), vehicle: saline + alcohol
  T/C: 115 % of control

## Nc1nc(-c2ccc(Cl)cc2)c(Br)c(=O)[nH]1
dose: 13.0 mg/kg/injection, schedule: Q01DX009 (ip), vehicle: saline with Tween-80
  T/C: 104 % of control
dose: 26.0 mg/kg/injection, schedule: Q01DX009 (ip), vehicle: saline with Tween-80
  T/C: 110 % of control
dose: 52.0 mg/kg/injection, schedule: Q01DX009 (ip), vehicle: saline with Tween-80
  T/C: 98 % of control
dose: 104.0 mg/kg/injection, schedule: Q01DX009 (ip), vehicle: saline with Tween-80
  T/C: 120 % of control

## CS(=O)(=O)OCCN(CCOS(C)(=O)=O)c1ccc(C=Nc2ccc(-c3csc(COc4ccccc4)n3)cc2)cc1
[11]
  T/C: 114 % of control
[2]
  T/C: 162 % of control

## c1ccc(Cc2ccccc2)cc1
[8]
  T/C: 90 % of control
[9]
  T/C: 90 % of control
[12]
  T/C: 95 % of control

## O=C1c2ccccc2-c2c(Br)c3ccccc3c(=O)n21
[8]
  T/C: 90 % of control
[9]
  T/C: 101 % of control
[12]
  T/C: 95 % of control
[13]
  T/C: 94 % of control

## S=c1sc2ccccc2n1CN1CCOCC1
[6]
  T/C: 99 % of control and 102 % of control
dose: 18.0 mg/kg/injection, schedule: Q01DX009 (ip), vehicle: saline with Tween-80
  T/C: 89 % of control
[7]
  T/C: 109 % of control and 112 % of control
dose: 30.0 mg/kg/injection, schedule: Q01DX009 (ip), vehicle: saline with Tween-80
  T/C: 91 % of control
[8]
  T/C: 113 % of control and 100 % of control
dose: 83.33 mg/kg/injection, schedule: Q01DX009 (ip), vehicle: saline with Tween-80
  T/C: 100 % of control
[9]
  T/C: 102 % of control and 105 % of control
dose: 138.88 mg/kg/injection, schedule: Q01DX009 (ip), vehicle: saline with Tween-80
  T/C: 106 % of control
[12]
  T/C: 95 % of control and 101 % of control

## CCCC(=O)O
dose: 12.5 mg/kg/injection, schedule: Q01DX009 (ip), vehicle: saline
  T/C: 100 % of control
[14]
  T/C: 96 % of control
dose: 50.0 mg/kg/injection, schedule: Q01DX009 (ip), vehicle: saline
  T/C: 93 % of control
dose: 100.0 mg/kg/injection, schedule: Q01DX009 (ip), vehicle: saline
  T/C: 98 % of control
dose: 200.0 mg/kg/injection, schedule: Q01DX009 (ip), vehicle: saline
  T/C: 93 % of control

## C=C1CCC2C(c3c(C)c(O)c4c(c31)C(=O)C(C)C4)C2(C)C (configuration not stated)
dose: 3.13 mg/kg/injection, schedule: Q01DX009 (ip), vehicle: Klucel (hydroxypropylcellulose) (HPC)
  T/C: 102 % of control
dose: 6.25 mg/kg/injection, schedule: Q01DX009 (ip), vehicle: Klucel (hydroxypropylcellulose) (HPC)
  T/C: 89 % of control
[11]
  T/C: 95 % of control
[1]
  T/C: 89 % of control

## CCCC1CCC(=C2C(=O)CCC2=O)O1 (configuration not stated)
[7]
  T/C: 103 % of control
[8]
  T/C: 98 % of control

## CO[C@@]12[C@@H]3N[C@@H]3CN1C1=C(C(=O)C(N3CCCC3)=C(C)C1=O)[C@@H]2COC(N)=O
dose: 3.12 mg/kg/injection, schedule: Q01DX009 (ip), vehicle: saline with Tween-80
  T/C: 327 % of control
[5]
  T/C: 100 % of control

## CCCn1cc2c3c(cccc31)C1C=C(C)CN(C)C1C2 (configuration not stated)
dose: 6.25 mg/kg/injection, schedule: Q01DX009 (ip), vehicle: other
  T/C: 118 % of control
dose: 12.5 mg/kg/injection, schedule: Q01DX009 (ip), vehicle: other
  T/C: 306 % of control
dose: 25.0 mg/kg/injection, schedule: Q01DX009 (ip), vehicle: other
  T/C: 91 % of control
